Measured values as given in ChEMBL document CHEMBL1781974, “Novel 4,4-disubstituted piperidine-based C-C chemokine receptor-5 inhibitors with high potency against human immunodeficiency virus-1 and an improved human ether-a-go-go related gene (hERG) profile” (J Med Chem, 2011).

Tests used:
[1] = in vivo; conditions: rat, iv
[2] = test system: Cynomolgus monkey; conditions: in vivo, po, 10 mg/kg
[3] = Dissociation constant, pKa of the compound; type: physicochemical
[4] = AUC in female rat at 2000 mg/kg/day, iv; type: ADME, organism-based; design: route intravenous; conditions: plasma
[5] = AUC in female dog at 250 mg/kg/day, iv; type: ADME, organism-based, Canis lupus familiaris; design: route intravenous; conditions: plasma
[6] = AUC in male dog at 250 mg/kg/day, iv; type: ADME, organism-based, Canis lupus familiaris; design: route intravenous; conditions: plasma
[7] = AUC in male rat at 2000 mg/kg/day, iv; type: ADME, organism-based; design: route intravenous; conditions: plasma

Row | SMILES | clearance [1] [mL/min/kg] | also measured
1 | Cc1nc2ccccc2n1C1CC2CCC(C1)N2CCC1(c2cccc(F)c2)CCN(C(=O)C(C)(C)C)CC1 (centres undefined) | 24 | –
2 | Cc1nc2ccccc2n1C1CC2CCC(C1)N2CCC1(c2ccccc2)CCN(C(=O)c2ccc3c(c2)CC(=O)NS3(=O)=O)CC1 (centres undefined) | 26 | –
3 | Cc1nc2ccccc2n1C1CC2CCC(C1)N2CCC1(c2ccccc2)CCN(C(=O)c2ccc(Cl)c(S(N)(=O)=O)c2)CC1 (centres undefined) | 31 | –
4 | Cc1nc2ccccc2n1C1CC2CCC(C1)N2CCC1(c2ccccc2)CCN(C(=O)C(C)(C)C(=O)NS(C)(=O)=O)CC1 (centres undefined) | 53 | –
5 | Cc1nc2ccccc2n1C1CC2CCC(C1)N2CCC1(c2cccc(F)c2)CCN(C(=O)c2c(F)ccc(NS(C)(=O)=O)c2F)CC1 (centres undefined) | – | AUC/dose [2]: 19.9 ng·h/mL
6 | Cc1nc2ccccc2n1[C@H]1C[C@H]2CC[C@@H](C1)N2CCC1(c2ccccc2)CCN(C(=O)C(C)(C)C)CC1 | – | pKa [3]: 10.7
7 | Cc1nc2ccccc2n1C1CC2CCC(C1)N2CCC1(c2ccccc2)CCN(C(=O)C(C)(C)c2nnn[nH]2)CC1 (centres undefined) | 156 | –
8 | Cc1nc2ccccc2n1C1CC2CCC(C1)N2CCC1(c2ccccc2)CCN(C(=O)c2ccccc2C(=O)O)CC1 (centres undefined) | 114 | –
9 | Cc1nc2ccccc2n1C1CC2CCC(C1)N2CCC1(c2ccccc2)CCN(C(=O)c2cccc(C(=O)O)c2)CC1 (centres undefined) | 62 | –
10 | Cc1nc2ccccc2n1C1CC2CCC(C1)N2CC(=O)C1(c2ccccc2)CCN(C(=O)C(C)(C)C)CC1 (centres undefined) | – | pKa [3]: 6.37
11 | Cc1cccc(C2(CCN3C4CCC3CC(n3c(C)nc5ccccc53)C4)CCN(C(=O)c3ccc(Cl)c(S(N)(=O)=O)c3)CC2)c1 (centres undefined) | 28.3 | –
12 | Cc1nc2ccccc2n1C1CC2CCC(C1)N2CCC1(c2cccc(F)c2)CCN(C(=O)C2(C(=O)O)CCC2)CC1 (centres undefined) | 136 | –
13 | CNS(=O)(=O)c1cc(C(=O)N2CCC(CCN3C4CCC3CC(n3c(C)nc5ccccc53)C4)(c3cccc(F)c3)CC2)c(Cl)cc1F (centres undefined) | – | AUC [4]: 160000 ng·h/mL; AUC/dose [2]: 38 ng·h/mL; AUC [5]: 34900 ng·h/mL; AUC [6]: 17200 ng·h/mL; AUC [7]: 77000 ng·h/mL
14 | Cc1nc2ccccc2n1C1CC2CCC(C1)N2CCC1(c2cccc(F)c2)CCN(C(=O)c2ccc(Cl)c(S(N)(=O)=O)c2)CC1 (centres undefined) | 26.8 | –
15 | Cc1nc2ccccc2n1C1CC2CCC(C1)N2CCC1(c2cccc(F)c2)CCN(C(=O)c2cc(NS(C)(=O)=O)c(F)cc2Cl)CC1 (centres undefined) | – | AUC/dose [2]: 59 ng·h/mL
